Measured values reported in article PMC4216499 (The Indian Journal of Medical Research, 2014).
Several values for one entry are separate records, joined by “and”; a condition that tells them apart may be missing. Equal entries are not always repeated.

Tests used:
influenza A viruses = details: cited from earlier work
pandemic (H1N1) viruses = system: pandemic (H1N1) viruses; design: species or system pandemic influenza A (H1N1) virus
Type B influenza = system: Type B influenza; design: species or system influenza B virus
[1] = system: pandemic (H1N1) 2009 viruses; details: cited from earlier work
A/H1N1 viruses = system: A/H1N1 viruses; design: species or system influenza A/H1N1 virus
A/H3N2 viruses = system: A/H3N2 viruses; design: species or system influenza A/H3N2 virus

| Compound | Amantadine resistance (influenza A viruses) | oseltamivir susceptibility by H274Y allelic discrimination (pandemic (H1N1) viruses) | oseltamivir susceptibility by NA gene markers (Type B influenza) | oseltamivir-resistant viruses detected [1] | Total resistant samples/Total samples (A/H1N1 viruses) | oseltamivir resistant with H274Y mutation (A/H1N1 viruses) | oseltamivir-resistance conferring mutations (A/H3N2 viruses) |
| --- | --- | --- | --- | --- | --- | --- | --- |
| NC12CC3CC(CC(C3)C1)C2 [amantadine] | 33-100% |  |  |  |  |  |  |
| CCOC(=O)C1=C[C@@H](OC(CC)CC)[C@H](NC(C)=O)[C@@H](N)C1 [oseltamivir] |  | all were sensitive | all type B isolates were sensitive | less than 1 per cent | 35/38 and 15/23 | 82% | none of the isolates had any of the reported oseltamivir-resistance conferring mutations |
